Experiments:
[1] = molecular target: IDH1 R132C (Homo sapiens, UniProt O75874, R132C); assay: IDH1 R132C enzymatic assay (NADPH depletion coupled to diaphorase/resazurin); assay type: biochemical; conditions: IDH1 R132C enzymatic inhibition, IC50 class
Description: (§1) Assays were conducted in a 1536-well black solid-bottom plate with a final assay volume of 9 μL.
For IDH1 R132C, 3 μL of enzyme (0.00032 mg/mL IDH1 […], 10% glycerol, 50 mM potassium phosphate pH 6.5, 5 mM MgCl2, 0.03% BSA) were added to the plate, followed by the addition of 23 nL of test compound in DMSO. The plate was lidded and incubated at room temperature for 30 minutes at which time 3 μL of substrate were added (0.012 mM NADPH, 0.6 mM α-KG, 10% glycerol, 50 mM potassium phosphate pH 6.5, 5 mM MgCl2, 0.03% BSA). […]

[2] = molecular target: IDH1 R132H (Homo sapiens, UniProt O75874, R132H); assay: IDH1 R132H enzymatic assay (NADPH depletion coupled to diaphorase/resazurin); assay type: biochemical; conditions: IDH1 R132H enzymatic inhibition, IC50 class
Description: as §1
Specifically, for IDH1 R132H, 3 μL of enzyme (4 mM β-ME, 0.0005 mg/mL IDH1 R132H, 150 mM NaCl, 20 mM Tris pH 7.5, 10 mM MgCl2, 0.05% BSA) were added to the plate, followed by the addition of 23 nL of test compound in DMSO. The plate was lidded and incubated at room temperature for 30 minutes at which time 3 μL of substrate were added (0.016 mM NADPH, 2 mM α-KG, 150 mM NaCl, 20 mM Tris pH 7.5, 10 mM MgCl2, 0.05% BSA). This reaction was incubated at room-temperature for 60 minutes at which time the detection mix was added (0.06 mg/mL diaphorase, 0.036 mM resazurin, 150 mM NaCl, 20 mM Tris pH 7.5, 10 mM MgCl2, 0.05% BSA). […]

Chain of IDH1 R132H (O75874 whole entry R132H): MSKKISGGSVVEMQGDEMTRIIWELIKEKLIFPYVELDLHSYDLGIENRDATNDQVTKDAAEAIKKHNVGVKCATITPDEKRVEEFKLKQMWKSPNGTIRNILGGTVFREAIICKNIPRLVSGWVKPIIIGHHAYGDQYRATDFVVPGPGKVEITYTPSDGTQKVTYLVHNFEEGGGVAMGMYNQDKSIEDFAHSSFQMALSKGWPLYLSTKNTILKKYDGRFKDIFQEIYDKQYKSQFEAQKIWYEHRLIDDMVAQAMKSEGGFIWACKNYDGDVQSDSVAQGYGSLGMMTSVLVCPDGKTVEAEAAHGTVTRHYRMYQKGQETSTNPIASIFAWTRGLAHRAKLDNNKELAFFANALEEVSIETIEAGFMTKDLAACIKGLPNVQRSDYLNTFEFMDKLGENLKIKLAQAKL
Chain of IDH1 R132C (O75874 whole entry R132C): as the sequence (O75874 whole entry R132H) above, with H132C counted along it

SMILES	IC50 [1]	IC50 [2]
CCc1cccc(CC)c1-n1c(C)c(C(=O)NC2CCCC(N)C2)cc(-c2nc(-c3ccc(Cl)cc3)cs2)c1=O (mixture of isomers) [Compound 126]	1 to 5 µM	5 to 20 µM
CC1(C)CC(=O)c2cc(-c3nc(-c4ccc(Cl)cc4)cs3)c(=O)n(-c3ccccc3OCc3ccccc3)c2C1 [Compound 1]	0.3 to 1 µM	> 20 µM
CCc1cccc(CC)c1-n1c(CC(C)C)c(C(=O)N2CCN[C@H](C(=O)OC)C2)cc(-c2nc(-c3ccc(Cl)cc3)cs2)c1=O [Compound 2]	0.3 to 1 µM	1 to 5 µM
CCOC(=O)c1cc(-c2nc(-c3ccc(Cl)cc3)cs2)c(=O)n(-c2c(CC)cccc2CC)c1-c1ccccc1 [Compound 3]	> 20 µM	> 20 µM
CCc1cccc(CC)c1-n1c(CC(C)C)c(C(=O)NCCO)cc(-c2nc(-c3ccc(Cl)cc3)cs2)c1=O [Compound 4]	0.3 to 1 µM	< 0.3 µM
CC1(C)CC(=O)c2cc(-c3nc(-c4ccc(Cl)cc4)cs3)c(=O)n(-c3ccccc3CN)c2C1 [Compound 5]	5 to 20 µM	5 to 20 µM
CCc1cccc(CC)c1-n1c(C)c(C(=O)NCCCN)cc(-c2nc(-c3ccc(Cl)cc3)cs2)c1=O [Compound 6]	1 to 5 µM	1 to 5 µM
CCc1cccc(CC)c1-n1c(C)c(C(=O)NC2CCCC2)cc(-c2nc(-c3ccc(Cl)cc3)cs2)c1=O [Compound 7]	1 to 5 µM	> 20 µM
CCc1cccc(CC)c1-n1c(CC(C)C)c(C(=O)N2CCN[C@@H](CO)C2)cc(-c2nc(-c3ccc(Cl)cc3)cs2)c1=O [Compound 8]	< 0.3 µM	< 0.3 µM
CC1(C)CC(=O)c2cc(-c3nc(-c4ccc(Cl)cc4)cs3)c(=O)n(-c3ccccc3OC(F)(F)F)c2C1 [Compound 9]	0.3 to 1 µM	1 to 5 µM
CCc1cccc(CC)c1-n1c(CC(C)C)c(C(=O)N[C@H](CO)c2ccccc2)cc(-c2nc(-c3ccc(Cl)cc3)cs2)c1=O [Compound 10]	< 0.3 µM	0.3 to 1 µM
CC(c1ccccc1)n1c2c(cc(-c3nc(-c4ccc(Cl)cc4)cs3)c1=O)C(=O)CC(C)(C)C2 (stereo not shown) [Compound 11]	5 to 20 µM	> 20 µM
COc1ccccc1-n1c2c(cc(-c3nc(-c4ccc(Cl)cc4)cs3)c1=O)C(=O)CC(C)(C)C2 [Compound 12]	1 to 5 µM	1 to 5 µM
Cc1noc(C)c1-n1c2c(cc(-c3nc(-c4ccc(Cl)cc4)cs3)c1=O)C(=O)CC(C)(C)C2 [Compound 13]	1 to 5 µM	> 20 µM
CCc1cccc(CC)c1-n1c(CC(C)C)c(C(=O)O)cc(-c2nc(-c3ccc(Cl)cc3)cs2)c1=O [Compound 14]	5 to 20 µM	1 to 5 µM
CCc1cccc(CC)c1-n1c(C)c(C(=O)NCCNC)cc(-c2nc(-c3ccc(Cl)cc3)cs2)c1=O [Compound 15]	< 0.3 µM	1 to 5 µM
CCc1cccc(CC)c1-n1c(C)c(C(=O)N2CCN[C@H](CO)C2)cc(-c2nc(-c3ccc(Cl)cc3)cs2)c1=O [Compound 16]	0.3 to 1 µM	1 to 5 µM
Cc1cccc(CN2CCN(C)CC2)c1-n1c2c(cc(-c3nc(-c4ccc(Cl)cc4)cs3)c1=O)C(=O)CC(C)(C)C2 [Compound 17]	5 to 20 µM	5 to 20 µM
CCc1cccc(CC)c1-n1c(C)c(C(=O)NC2CCCC(O)C2)cc(-c2nc(-c3ccc(Cl)cc3)cs2)c1=O (stereo not shown) [Compound 18]	1 to 5 µM	5 to 20 µM
CC1(C)CC(=O)c2cc(-c3nc(-c4ccc(Cl)cc4)cs3)c(=O)n(C3CCCc4ccccc43)c2C1 (stereo not shown) [Compound 19]	0.3 to 1 µM	> 20 µM
CCc1cccc(CC)c1-n1c(CC(C)C)c(C(=O)N[C@@H](CO)c2ccccc2)cc(-c2nc(-c3ccc(Cl)cc3)cs2)c1=O [Compound 20]	< 0.3 µM	0.3 to 1 µM

SMILES	IC50 [1]	IC50 [2]
CCc1cccc(CC)c1-n1c(C)c(C(=O)N2CCN[C@@H](C(=O)O)C2)cc(-c2nc(-c3ccc(Cl)cc3)cs2)c1=O [Compound 21]	1 to 5 µM	0.3 to 1 µM
Cc1ccccc1-n1c2c(cc(-c3nc(-c4ccc(Cl)cc4)cs3)c1=O)C(=O)CC(C)(C)C2 [Compound 22]	0.3 to 1 µM	1 to 5 µM
COc1ccc(OC)c(-n2c3c(cc(-c4nc(-c5ccc(Cl)cc5)cs4)c2=O)C(=O)N(C(=O)OC(C)(C)C)CC3)c1 [Compound 23]	5 to 20 µM	> 20 µM
COc1ccc(OC)c(-n2c3c(cc(-c4nc(-c5ccc(Cl)cc5)cs4)c2=O)C(=O)CC3)c1 [Compound 24]	5 to 20 µM	> 20 µM
CC1(C)CC(=O)c2cc(-c3nc(-c4ccc(Cl)cc4)cs3)c(=O)n(-c3ccccc3OC3CC3)c2C1 [Compound 25]	0.3 to 1 µM	1 to 5 µM
Cc1ccc(N)cc1-n1c2c(cc(-c3nc(-c4ccc(Cl)cc4)cs3)c1=O)C(=O)CC(C)(C)C2 [Compound 26]	1 to 5 µM	1 to 5 µM
COc1ccc(C(=O)O)cc1-n1c2c(cc(-c3nc(-c4ccc(Cl)cc4)cs3)c1=O)C(=O)CC(C)(C)C2 [Compound 27]	5 to 20 µM	5 to 20 µM
CCc1cccc(CC)c1-n1c(C(C)C)c(C(=O)N2CCN[C@@H](C(=O)O)C2)cc(-c2nc(-c3ccc(Cl)cc3)cs2)c1=O [Compound 28]	< 0.3 µM	< 0.3 µM
CCc1cccc(CC)c1-n1c(CC(C)C)c(C(=O)NC[C@@H](NC(C)=O)C(=O)O)cc(-c2nc(-c3ccc(Cl)cc3)cs2)c1=O [Compound 29]	1 to 5 µM	1 to 5 µM
CC1(C)CC(=O)c2cc(-c3nc(-c4ccc(F)cc4)cs3)c(=O)n(-c3ccccc3C(F)(F)F)c2C1 [Compound 30]	0.3 to 1 µM	0.3 to 1 µM
CCc1cccc(CC)c1-n1c(C(C)C)c(C(=O)N2CCNC(C(=O)OC)C2)cc(-c2nc(-c3ccc(Cl)cc3)cs2)c1=O (stereo not shown) [Compound 31]	0.3 to 1 µM	1 to 5 µM
CCc1cccc(CC)c1-n1c(C(C)C)c(C(=O)NC)cc(-c2nc(-c3ccc(Cl)cc3)cs2)c1=O [Compound 32]	0.3 to 1 µM	0.3 to 1 µM
CCc1cccc(CC)c1-n1c(CC(C)C)c(C(=O)NC)cc(-c2nc(-c3ccc(Cl)cc3)cs2)c1=O [Compound 33]	< 0.3 µM	0.3 to 1 µM
CCc1cccc(CC)c1-n1c(CC(C)C)c(C(=O)N2CCCC(CO)C2)cc(-c2nc(-c3ccc(Cl)cc3)cs2)c1=O (stereo not shown) [Compound 34]	0.3 to 1 µM	1 to 5 µM
CCc1cccc(CC)c1-n1c(C(C)C)c(C(=O)NC2CCNCC2)cc(-c2nc(-c3ccc(Cl)cc3)cs2)c1=O [Compound 35]	1 to 5 µM	1 to 5 µM
CCc1cccc(CC)c1-n1c(C)c(C(=O)N2CCC(C(=O)O)C2)cc(-c2nc(-c3ccc(Cl)cc3)cs2)c1=O (stereo not shown) [Compound 36]	> 20 µM	> 20 µM
CCc1cccc(CC)c1-n1c(C(C)C)c(C(=O)N2CCNC[C@H]2C)cc(-c2nc(-c3ccc(Cl)cc3)cs2)c1=O [Compound 37]	0.3 to 1 µM	1 to 5 µM
CCc1cccc(CC)c1-n1c(C)c(C(=O)N2CCN[C@@H](C)C2)cc(-c2nc(-c3ccc(Cl)cc3)cs2)c1=O [Compound 38]	0.3 to 1 µM	< 0.3 µM
CCc1cccc(CC)c1-n1c(CC(C)C)c(C(=O)N2CCNCC2)cc(-c2nc(-c3ccc(OCc4ccccc4)cc3)c(C)s2)c1=O [Compound 39]	5 to 20 µM	5 to 20 µM
CCc1cccc(CC)c1-n1c(C)c(C(=O)N2CCN[C@H](C(=O)OC)C2)cc(-c2nc(-c3ccc(Cl)cc3)cs2)c1=O [Compound 41]	1 to 5 µM	5 to 20 µM
